From US11912693B2, “Compounds for modulating S1P1 activity and methods of using the same” (TREVENA, INC., priority 2017, dated 2024)

Experiments:
[1] = target: T1, human sphingosine-1-phosphate receptor 1 (S1P1) (Homo sapiens (Human), UniProt P21453); assay: Inhibition of cAMP production (HTRF cAMP HiRange), S1P1 CHO-K1 cells; format: cell-based; details: for Emax: CHO-K1, read-out: hS1P1 cAMP SPAN
Summary of the method: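 CHO-K1 cells stably co-expressing human S1P1 (C-terminal Prolink tag) and EA-β-arrestin2 were grown in AssayComplete Media 6 at 37° C. and 5% CO2, plated, and incubated overnight. Agonist-driven inhibition of intracellular cAMP was read by TR-FRET with the HTRF cAMP HiRange kit on a PheraStar reader. Potency is pEC50, and efficacy (SPAN) is normalized to fingolimod.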
Target sequence in this assay (P21453 whole entry, looked up): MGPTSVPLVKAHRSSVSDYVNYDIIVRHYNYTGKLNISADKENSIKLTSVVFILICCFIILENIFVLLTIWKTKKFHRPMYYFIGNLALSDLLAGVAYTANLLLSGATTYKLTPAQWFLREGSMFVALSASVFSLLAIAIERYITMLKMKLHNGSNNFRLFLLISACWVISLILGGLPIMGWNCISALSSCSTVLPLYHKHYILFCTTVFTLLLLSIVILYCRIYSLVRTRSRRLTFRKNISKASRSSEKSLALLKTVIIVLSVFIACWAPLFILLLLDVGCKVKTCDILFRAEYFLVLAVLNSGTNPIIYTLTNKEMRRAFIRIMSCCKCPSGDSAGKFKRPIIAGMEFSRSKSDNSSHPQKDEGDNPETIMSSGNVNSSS

[2] = target: T1, human sphingosine-1-phosphate receptor 1 (S1P1); assay: β-Arrestin2 recruitment assay (PathHunter), S1P1 CHO-K1 cells; format: cell-based; details: for Emax: CHO-K1, read-out: hS1P1 B-arrestin2 SPAN
Summary of the method: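 Enzyme-fragment complementation read-out: agonist-driven β-arrestin2 binding to ProLink-tagged human S1P1 in stable CHO-K1 cells restores β-galactosidase, measured 1 h at room temperature after a 60 min 37° C. compound incubation. Potency as pEC50, efficacy relative to fingolimod (SPAN).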
Target sequence in this assay (P21453 whole entry, looked up): as above
Target sequence in this assay (P32121 whole entry partner, looked up): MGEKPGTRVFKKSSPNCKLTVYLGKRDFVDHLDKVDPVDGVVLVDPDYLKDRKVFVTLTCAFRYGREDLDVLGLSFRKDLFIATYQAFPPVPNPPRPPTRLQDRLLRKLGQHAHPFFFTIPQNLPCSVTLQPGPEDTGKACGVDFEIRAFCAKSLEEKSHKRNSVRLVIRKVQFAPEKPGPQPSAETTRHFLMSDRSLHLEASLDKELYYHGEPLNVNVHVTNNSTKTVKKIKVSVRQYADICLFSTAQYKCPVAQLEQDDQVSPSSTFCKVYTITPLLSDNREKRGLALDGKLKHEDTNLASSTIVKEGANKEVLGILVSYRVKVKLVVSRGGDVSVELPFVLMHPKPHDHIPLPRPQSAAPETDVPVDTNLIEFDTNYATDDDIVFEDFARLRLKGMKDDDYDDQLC

[3] = efficacy (SPAN) normalized to fingolimod
[4] = inhibition of cAMP production, S1P1 CHO-K1 cells
[5] = β-arrestin2 recruitment, S1P1 CHO-K1 cells

Structure (SMILES) | Emax [1, 3] | hS1P1 cAMP pEC50 [1, 4] | Emax [2, 3] | hS1P1 B-arrestin2 pEC50 [2, 5] | hS1P1 cAMP SPAN [1, 3] | hS1P1 B-arrestin2 SPAN [2, 3] | EC50 ([1]; inhibition of cAMP production, S1P1 CHO-K1 cells, read-out: hS1P1 cAMP pEC50 (converted)) | EC50 ([2]; β-arrestin2 recruitment, S1P1 CHO-K1 cells, read-out: hS1P1 B-arrestin2 pEC50 (converted))
O=C1CC2(CCCCC2)Oc2ccc(-c3nc(-c4ccncc4)no3)cc21 [Compound 280, 6-[3-(pyridin-4-yl)-1,2,4-oxadiazol-5-yl]-3,4-dihydrospiro[1-benzopyran-2,1′-cyclohexane]-4-one] | < 75% | <6.5 | < 75% | <5 |  |  |  | 
COc1ccccc1-c1nnc(-c2ccc3c(c2)nnn3C(C)C)o1 [Compound 35, 5-[5-(2-methoxyphenyl)-1,3,4-oxadiazol-2-yl]-1-(propan-2-yl)-1H-1,2,3-benzotriazole] |  | <6.5 |  | <5 |  |  |  | 
Cc1ccc(-c2nc(-c3ccc4c(c3)nnn4C3CCCC3)no2)cc1 [Compound 235, 3-(1-cyclopentyl-1H-benzo[d][1,2,3]triazol-5-yl)-5-(p-tolyl)-1,2,4-oxadiazole] |  | <6.5 |  | <5 |  |  |  | 
CC(C)n1nnc2cc(-c3noc(C45CC6CC(CC(C6)C4)C5)n3)ccc21 [Compound 200, 5-[5-(adamantan-1-yl)-1,2,4-oxadiazol-3-yl]-1-(propan-2-yl)-1H-1,2,3-benzotriazole] |  | <6.5 |  | <5 |  |  |  | 
CC(C)n1nnc2cc(-c3nc(-c4ccc(OCc5ccccc5)c(C(F)(F)F)c4)no3)ccc21 [Compound 296, 5-{3-[4-(benzyloxy)-3-(trifluoromethyl)phenyl]-1,2,4-oxadiazol-5-yl}-1-(propan-2-yl)-1H-1,2,3-benzotriazole] | < 75% | <6.5 | < 75% | <5 |  |  |  | 
COc1cccc(-c2nc(-c3ccc4[nH]ccc4c3)ns2)c1 [Compound 364, 5-[5-(3-methoxyphenyl)-1,2,4-thiadiazol-3-yl]-1H-indole] |  | <6.5 |  | <5 |  |  |  | 
CN1C(=O)Cc2cc(-c3nc(-c4cccnc4)no3)ccc21 [Compound 377, 1-methyl-5-[3-(pyridin-3-yl)-1,2,4-oxadiazol-5-yl]-2,3-dihydro-1H-indol-2-one] |  | <6.5 |  | <5 |  |  |  | 
COc1cccc(-c2noc(-c3ccc4c(c3)nnn4C3CCCC3)n2)n1 [Compound 124, 1-cyclopentyl-5-[3-(6-methoxypyridin-2-yl)-1,2,4-oxadiazol-5-yl]-1H-1,2,3-benzotriazole] | < 75% | <6.5 | < 75% | <5 |  |  |  | 
CCC1(CC)CC(=O)c2cc(-c3nc(-c4ccc(O)cc4)no3)ccc2O1 [Compound 72, 2,2-diethyl-6-[3-(4-hydroxyphenyl)-1,2,4-oxadiazol-5-yl]chroman-4-one] | > 75% | >6.5 | > 75% | >5 |  |  |  | 
Cc1ccccc1-c1noc(-c2ccc3c(c2)nnn3CC(C)(C)O)n1 [Compound 139, 2-methyl-1-{5-[3-(2-methylphenyl)-1,2,4-oxadiazol-5-yl]-1H-1,2,3-benzotriazol-1-yl}propan-2-ol] | > 75% | >6.5 | > 75% | >5 |  |  |  | 
CCC1(CC)CC(=O)c2cc(-c3nnc(-c4cccnc4)o3)ccc2O1 [Compound 28, 2,2-diethyl-6-(5-(pyridin-3-yl)-1,3,4-oxadiazol-2-yl)chroman-4-one] | > 75% | <6.5 | > 75% | <5 |  |  |  | 
COCCn1cc(-c2ccccc2C)cc1-c1ccc2c(c1)nnn2C(C)C [Compound 534, 5-[1-(2-methoxyethyl)-4-(2-methylphenyl)-1H-pyrrol-2-yl]-1-(propan-2-yl)-1H-1,2,3-benzotriazole] | < 75% | <6.5 | < 75% | <5 |  |  |  | 
CCC1(CC)CC(=O)c2cc(-c3nsc(-c4ccccc4OC)n3)ccc2O1 [Compound 222, 2,2-diethyl-6-(5-(2-methoxyphenyl)-1,2,4-thiadiazol-3-yl)chroman-4-one] |  | <6.5 |  | >5 |  |  |  | 
CC(C)n1ccc2cc(-c3nc(-c4ccccc4F)cs3)cnc21 [Compound 402, 4-(2-fluorophenyl)-2-(1-isopropyl-1H-pyrrolo[2,3-b]pyridin-5-yl)thiazole] |  | >6.5 |  | <5 |  |  |  | 
CC(C)n1nnc2cc(-c3nc(-c4ccc(OCc5ccccc5)cc4)no3)ccc21 [Compound 53, 5-{3-[4-(benzyloxy)phenyl]-1,2,4-oxadiazol-5-yl}-1-(propan-2-yl)-1H-1,2,3-benzotriazole] | < 75% | <6.5 | < 75% | <5 |  |  |  | 
CC(C)n1nnc2cc(-c3nc(-c4ccc(-c5ccccc5)cn4)no3)ccc21 [Compound 9, 5-[3-(5-phenylpyridin-2-yl)-1,2,4-oxadiazol-5-yl]-1-(propan-2-yl)-1H-1,2,3-benzotriazole] |  | <6.5 |  | <5 |  |  |  | 
COc1ccccc1-c1noc(-c2ccc3c(c2)NC(=O)CN3)n1 [Compound 614, 7-[3-(2-methoxyphenyl)-1,2,4-oxadiazol-5-yl]-1,2,3,4-tetrahydroquinoxalin-2-one] |  | <6.5 |  | <5 |  |  |  | 
COc1cccc(-c2csc(-c3ccc4c(ccn4C(C)C)c3)n2)c1 [Compound 405, 2-(1-isopropylindol-5-yl)-4-(3-methoxyphenyl)thiazole] |  | <6.5 |  | <5 |  |  |  | 
COc1ccccc1-c1noc(-c2ccc3c(c2)nnn3C(C)(C)C)n1 [Compound 207, 1-tert-butyl-5-[3-(2-methoxyphenyl)-1,2,4-oxadiazol-5-yl]-1H-1,2,3-benzotriazole] | > 75% | >6.5 | > 75% | >5 |  |  |  | 
Cc1ccncc1-c1nc(-c2ccc3c(c2)nnn3C(C)C)no1 [Compound 100, 3-(1-isopropyl-1H-benzo[d][1,2,3]triazol-5-yl)-5-(4-methylpyridin-3-yl)-1,2,4-oxadiazole] | < 75% | <6.5 | < 75% | <5 |  |  |  | 
FC(F)(F)Oc1cccc(-c2nc(-c3ccc4c(c3)nnn4C3CCCC3)no2)c1 [Compound 10, 3-(1-cyclopentyl-1H-benzo[d][1,2,3]triazol-5-yl)-5-(3-(trifluoromethoxy)phenyl)-1,2,4-oxadiazole] |  | <6.5 |  | <5 | <75 | <75 |  | 
CC(C)n1ccc2cc(-c3nc(-c4ccccc4OC(F)(F)F)no3)ccc21 [Compound 321, 5-(1-isopropyl-1H-indol-5-yl)-3-(2-(trifluoromethoxy)phenyl)-1,2,4-oxadiazole] | > 75% | <6.5 | < 75% | >5 |  |  |  | 
Cc1nc(-c2ccccc2)oc1-c1cnc2c(c1)CC(=O)N2 [Compound 360, 5-(4-methyl-2-phenyl-1,3-oxazol-5-yl)-1H,2H,3H-pyrrolo[2,3-b]pyridin-2-one] |  | <6.5 |  | <5 |  |  |  | 
CCC1(CC)CC(=O)c2cc(-c3nc(-c4ccc(C)cc4)no3)ccc2O1 [Compound 269, 2,2-diethyl-6-[3-(p-tolyl)-1,2,4-oxadiazol-5-yl]chroman-4-one] | < 75% | <6.5 | < 75% | <5 |  |  |  | 
CCCC1CC(=O)c2ccc(-c3nc(-c4cccnc4)no3)cc2O1 (centres unmarked) [Compound 630, 2-propyl-7-[3-(pyridin-3-yl)-1,2,4-oxadiazol-5-yl]-3,4-dihydro-2H-1-benzopyran-4-one] |  | <6.5 |  | <5 |  |  |  | 
CC(=O)Nc1ccccc1-c1coc(-c2ccc3c(c2)nnn3C(C)C)n1 [Compound 458, N-(2-{2-[1-(propan-2-yl)-1H-1,2,3-benzotriazol-5-yl]-1,3-oxazol-4-yl}phenyl)acetamide] | < 75% | <6.5 | < 75% | <5 |  |  |  | 
Cc1cc(C)cc(Cc2noc(-c3ccc4c(c3)nnn4C(C)C)n2)c1 [Compound 126, 5-{3-[(3,5-dimethylphenyl)methyl]-1,2,4-oxadiazol-5-yl}-1-(propan-2-yl)-1H-1,2,3-benzotriazole] | < 75% | <6.5 | < 75% | <5 |  |  |  | 
COc1cnc(-c2nc(-c3ccc4c(c3)nnn4C(C)C)no2)cn1 [Compound 51, 3-(1-isopropyl-1H-benzo[d][1,2,3]triazol-5-yl)-5-(5-methoxypyrazin-2-yl)-1,2,4-oxadiazole] |  | <6.5 |  | <5 |  |  |  | 
O=C1CC2(CCOCC2)Oc2ccc(-c3nc(-c4ccncc4)no3)cc21 [Compound 148, 6-[3-(pyridin-4-yl)-1,2,4-oxadiazol-5-yl]-3,4-dihydrospiro[1-benzopyran-2,4′-oxane]-4-one] |  | <6.5 |  | <5 |  |  |  | 
COC(=O)Cn1nnc2cc(-c3noc(-c4ccccc4Br)n3)ccc21 [Compound 81, methyl 2-(5-(5-(2-bromophenyl)-1,2,4-oxadiazol-3-yl)-1H-benzo[d][1,2,3]triazol-1-yl)acetate] | > 75% |  | < 75% |  |  |  | > 0.316 µM | > 10 µM
